Laboratory results reported in the NIST ThermoML archive (doi:10.1021/je101008y).
± gives the expanded uncertainty stated by the source.

Assay: activity coefficient (dimensionless); of the first substance listed, at infinite dilution; xn = mol fraction of the nth substance listed
Details: Liquid, Chromatography, x1 = 0

Row | SMILES | activity coefficient (318.15 K) | activity coefficient (328.15 K) | activity coefficient (338.15 K) | activity coefficient (348.15 K) | activity coefficient (358.15 K) | activity coefficient (318.2 K) | activity coefficient (328.2 K) | activity coefficient (338.2 K) | activity coefficient (348.2 K) | activity coefficient (358.2 K)
1 | Cc1ccccc1C [1,2-dimethylbenzene] + CCCC[N+]1(C)CCCCC1.N#C[S-] | 4.15 ± 0.28 | 4.18 ± 0.28 | 4.21 ± 0.29 | 4.24 ± 0.29 | 4.26 ± 0.29 | – | – | – | – | –
2 | Cc1cccc(C)c1 [1,3-dimethylbenzene] + CCCC[N+]1(C)CCCCC1.N#C[S-] | 5.23 ± 0.36 | 5.25 ± 0.36 | 5.26 ± 0.36 | 5.27 ± 0.36 | 5.28 ± 0.36 | – | – | – | – | –
3 | Cc1ccc(C)cc1 [1,4-dimethylbenzene] + CCCC[N+]1(C)CCCCC1.N#C[S-] | 5.01 ± 0.34 | 5.04 ± 0.34 | 5.07 ± 0.35 | 5.1 ± 0.35 | 5.13 ± 0.35 | – | – | – | – | –
4 | C=CCCCCC [1-heptene] + CCCC[N+]1(C)CCCCC1.N#C[S-] | 60.3 ± 4.1 | 55.5 ± 3.8 | 51.7 ± 3.5 | 47.9 ± 3.3 | 45.7 ± 3.1 | – | – | – | – | –
5 | C#CCCCCC [1-heptyne] + CCCC[N+]1(C)CCCCC1.N#C[S-] | 9.17 ± 0.63 | 9.19 ± 0.63 | 9.2 ± 0.6 | 9.23 ± 0.63 | 9.28 ± 0.63 | – | – | – | – | –
6 | C#CCCCC [1-hexyne] + CCCC[N+]1(C)CCCCC1.N#C[S-] | 6.07 ± 0.41 | 6.11 ± 0.42 | 6.16 ± 0.42 | 6.19 ± 0.42 | 6.22 ± 0.42 | – | – | – | – | –
7 | C#CCCCCCC [1-octyne] + CCCC[N+]1(C)CCCCC1.N#C[S-] | 13.6 ± 0.9 | 13.6 ± 0.9 | 13.6 ± 0.9 | 13.7 ± 0.9 | 13.7 ± 0.9 | – | – | – | – | –
8 | COC(C)(C)C [2-methoxy-2-methylpropane] + CCCC[N+]1(C)CCCCC1.N#C[S-] | – | – | – | – | – | 13.1 ± 0.9 | 12.7 ± 0.9 | 12.4 ± 0.8 | 12 ± 0.8 | 11.8 ± 0.8
9 | CC(C)=O [acetone] + CCCC[N+]1(C)CCCCC1.N#C[S-] | – | – | – | – | – | 1.52 ± 0.1 | 1.52 ± 0.1 | 1.53 ± 0.1 | 1.54 ± 0.1 | 1.55 ± 0.1
10 | c1ccccc1 [benzene] + CCCC[N+]1(C)CCCCC1.N#C[S-] | 1.9 ± 0.13 | 1.92 ± 0.13 | 1.95 ± 0.13 | 1.97 ± 0.13 | 1.99 ± 0.14 | – | – | – | – | –
11 | C1CCCCCC1 [cycloheptane] + CCCC[N+]1(C)CCCCC1.N#C[S-] | 44.3 ± 3 | 41.5 ± 2.8 | 37.4 ± 2.6 | 34.6 ± 2.4 | 32.7 ± 2.2 | – | – | – | – | –
12 | C1CCCCC1 [cyclohexane] + CCCC[N+]1(C)CCCCC1.N#C[S-] | 39.8 ± 2.7 | 35.9 ± 2.5 | 32.4 ± 2.2 | 29.4 ± 2 | 27.5 ± 1.9 | – | – | – | – | –
13 | C1CCCCCCC1 [cyclooctane] + CCCC[N+]1(C)CCCCC1.N#C[S-] | 60 ± 4 | 54 ± 4 | 49.1 ± 3.4 | 44.7 ± 3.1 | 42.1 ± 2.9 | – | – | – | – | –
14 | C1CCCC1 [cyclopentane] + CCCC[N+]1(C)CCCCC1.N#C[S-] | 27.5 ± 1.9 | 24.2 ± 1.7 | 22.1 ± 1.5 | 19.9 ± 1.4 | 18.9 ± 1.3 | – | – | – | – | –
15 | CCCCCCCCCC [decane] + CCCC[N+]1(C)CCCCC1.N#C[S-] | 487 ± 34 | 433 ± 30 | 390 ± 27 | 342 ± 24 | 311 ± 21 | – | – | – | – | –
16 | CCOCC [diethyl ether] + CCCC[N+]1(C)CCCCC1.N#C[S-] | – | – | – | – | – | 12 ± 0.8 | 11.6 ± 0.8 | 11.1 ± 0.8 | 10.8 ± 0.7 | 10.5 ± 0.7

Row | SMILES | activity coefficient (318.15 K) | activity coefficient (328.15 K) | activity coefficient (338.15 K) | activity coefficient (348.15 K) | activity coefficient (358.15 K) | activity coefficient (318.2 K) | activity coefficient (328.2 K) | activity coefficient (338.2 K) | activity coefficient (348.2 K) | activity coefficient (358.2 K)
17 | CCCOCCC [dipropyl ether] + CCCC[N+]1(C)CCCCC1.N#C[S-] | – | – | – | – | – | 35.1 ± 2.4 | 32.9 ± 2.3 | 31 ± 2.1 | 29.3 ± 2 | 28 ± 1.9
18 | CCO [ethanol] + CCCC[N+]1(C)CCCCC1.N#C[S-] | 0.647 ± 0.044 | 0.637 ± 0.044 | 0.627 ± 0.043 | 0.618 ± 0.043 | 0.612 ± 0.043 | – | – | – | – | –
19 | CCc1ccccc1 [ethylbenzene] + CCCC[N+]1(C)CCCCC1.N#C[S-] | 5.18 ± 0.35 | 5.18 ± 0.35 | 5.16 ± 0.35 | 5.15 ± 0.35 | 5.14 ± 0.35 | – | – | – | – | –
20 | CCCCCCC [heptane] + CCCC[N+]1(C)CCCCC1.N#C[S-] | 170 ± 12 | 142 ± 10 | 127 ± 9 | 111 ± 8 | 102 ± 7 | – | – | – | – | –
21 | C=CCCCC [hex-1-ene] + CCCC[N+]1(C)CCCCC1.N#C[S-] | 41.3 ± 2.8 | 37 ± 3 | 34.6 ± 2.4 | 32 ± 2 | 30.1 ± 2.1 | – | – | – | – | –
22 | CCCCCC [hexane] + CCCC[N+]1(C)CCCCC1.N#C[S-] | 124 ± 9 | 104 ± 7 | 89.3 ± 6.1 | 78.5 ± 5.4 | 68.5 ± 4.7 | – | – | – | – | –
23 | CO [methanol] + CCCC[N+]1(C)CCCCC1.N#C[S-] | 0.366 ± 0.033 | 0.368 ± 0.033 | 0.37 ± 0.033 | 0.371 ± 0.033 | 0.373 ± 0.033 | – | – | – | – | –
24 | CCCCCCCCC [nonane] + CCCC[N+]1(C)CCCCC1.N#C[S-] | 333 ± 23 | 293 ± 20 | 267 ± 18 | 234 ± 16 | 214 ± 15 | – | – | – | – | –
25 | C=CCCCCCC [oct-1-ene] + CCCC[N+]1(C)CCCCC1.N#C[S-] | 90.6 ± 6.2 | 83.7 ± 5.7 | 77.4 ± 5.3 | 71.5 ± 4.9 | 67.4 ± 4.6 | – | – | – | – | –
26 | CCCCCCCC [octane] + CCCC[N+]1(C)CCCCC1.N#C[S-] | 236 ± 16 | 206 ± 14 | 185 ± 13 | 161 ± 11 | 150 ± 10 | – | – | – | – | –
27 | CCCC(C)=O [pentan-2-one] + CCCC[N+]1(C)CCCCC1.N#C[S-] | – | – | – | – | – | 3.07 ± 0.21 | 3.08 ± 0.21 | 3.09 ± 0.21 | 3.11 ± 0.21 | 3.12 ± 0.21
28 | CCC(=O)CC [pentan-3-one] + CCCC[N+]1(C)CCCCC1.N#C[S-] | – | – | – | – | – | 3.08 ± 0.21 | 3.09 ± 0.21 | 3.11 ± 0.21 | 3.12 ± 0.21 | 3.13 ± 0.21
29 | C1CCOC1 [tetrahydrofuran] + CCCC[N+]1(C)CCCCC1.N#C[S-] | 2.28 ± 0.16 | 2.31 ± 0.16 | 2.34 ± 0.16 | 2.36 ± 0.16 | 2.38 ± 0.16 | – | – | – | – | –
30 | c1ccsc1 [thiophene] + CCCC[N+]1(C)CCCCC1.N#C[S-] | 1.1 ± 0.07 | 1.13 ± 0.07 | 1.17 ± 0.07 | 1.2 ± 0.08 | 1.23 ± 0.08 | – | – | – | – | –
31 | Cc1ccccc1 [toluene] + CCCC[N+]1(C)CCCCC1.N#C[S-] | 3.14 ± 0.21 | 3.16 ± 0.22 | 3.19 ± 0.22 | 3.21 ± 0.22 | 3.23 ± 0.22 | – | – | – | – | –
32 | O [water] + CCCC[N+]1(C)CCCCC1.N#C[S-] | – | 0.332 ± 0.032 | 0.337 ± 0.032 | 0.342 ± 0.032 | 0.348 ± 0.032 | – | – | – | – | –
